Where two headings read alike, the source gives them in different places.
How the values were obtained:
[1] = tested on: gp120 coremin; test: SPR enhancement of gp120 coremin binding to 17b antibody; design: species or system HIV-1; details: 100 nM gp120, 0–100 µM compound, 17b captured on CM5 chip
Text: A major undesired trait of NBD analogues as HIV-1 entry inhibitors is their capacity to activate viral infectivity in CD4-negative cells. To understand the underlying mechanisms of activation of HIV-1 infectivity in CD4-negative cells in the presence of select NBD analogues, we asked if the capacity of the four analogues to induce gp120 conformational change to the CD4-bound state might account for observed differences in viral infectivity. To address this question, we employed surface-plasmon resonance (SPR) and measured the capacity of NBD-557, (±)-AS-II-37, (±)-AS-I-261, (±)-MAE-II-167, and (±)-MAE-II-188 to increase the binding affinity of either the minimal core (coremin) or full-length gp120 for the 17b antibody, which recognizes gp120 in the CD4-bound conformation. We chose gp120 coremin over coree for SPR measurement because the coree is already in the CD4 bound conformation, and the effect of these small molecules on 17b-gp120 interaction is undetectable.
Figure 7 NBD analogue binding to gp120 enhances 17b-gp120 interaction. (A–D) 100 nM of gp120 coremin or full-length gp120 in the presence of 0–100 µM of NBD analogues was passed over 17b antibody immobilized on a CM5 chip. The binding of gp120 to 17b increased, in a concentration dependent manner, in response to treatment with the NBD analogues.
SPR experiments were performed using Biacore T100 (GE Healthcare) at 25°C. […] HBS-EP buffer (GE Healthcare) was used for the running buffer. A capture method was used to monitor the enhancement of gp120 binding to 17b by NBD-analogues. […] The running buffer contained 20 mM HEPES, pH 7.4, 150 mM NaCl, 0.05% P-20, and 5% DMSO.

[2] = tested on: HIV-1 YU2 virus; details: cited from earlier work; for IC50: Cf2Th-CD4/CCR5 cells infected with HIV-1 YU2 virus
[3] = tested on: amphotropic murine leukemia virus (A-MLV); details: cells infected with A-MLV, cited from earlier work
[4] = tested on: HIV-1YU2 virus; details: cited from earlier work; for Activation of Viral Infectivity: relative, CD4 negative Cf2Th-CCR5 cells; for activation of viral infectivity in CD4-negative cells (in words): summary of Table S1
[5] = biological target: gp120; details: cited from earlier work; for Kd: binding affinity for gp120
[6] = tested on: Cf2Th-CD4-CCR5 cells; design: method as in PMID 22497421; details: 100 µM; ref [24]; cited from earlier work
[7] = tested on: full-length gp120 variants possessing the Ser 375 to Trp mutation (S375W); design: method as in PMID 19000821; details: ref [21]; cited from earlier work
[8] = tested on: Clade A/E93TH057 gp120 coree; test: SPR binding of gp120 coree to immobilized NBD-556 and sCD4; design: species or system HIV-1; details: ligand on CM5 chip, His 375
Text: (§1) Our structures reveal that Region I and II of the NBD congeners fit deeply within the Phe 43 cavity. As such, mutations that alter the shape of the cavity will also affect binding of the small molecules to gp120. One residue in close proximity to Region I and II of the NBD congeners is Ser 375 (vide supra). […] In several group O, N, or M HIV-1 viruses, Ser 375 of gp120 is replaced with either Met or His. […] However, the rate of Ser 375 to Trp mutation may be counterbalanced because the same mutation is also detrimental to the viruses by predisposing gp120 to adopt the CD4-bound conformation, a state prone to inactivation. Overall, the Phe 43 cavity remains an indispensable target for small molecule inhibitors.
(§2) Figure 8 NBD analogues are unable to bind Ser 375 variants of gp120s. […] Ser 375 was shown in the NBD-557 bound cavity. […] NBD-557 modeled into the Phe 43 cavity of clade A/E gp120 clashes with His 375. […] Met 375 modeled into NBD-557-bound YU2 gp120 clashes with NBD-557. […] NBD-557 clashes with Trp 375 in the Phe 43 cavity.

[9] = tested on: Clade AKER2008 gp120 coree; test: as above; design: species or system HIV-1; details: ligand on CM5 chip, Met 375
Text: as §1, §2

[10] = tested on: Clade CRF34_1OUR2478P gp120 coree; test: as above; design: species or system HIV-1; details: ligand on CM5 chip, Trp 375
Text: as §1, §2

[11] = tested on: virus expressing the S375W Env gp120; design: method as in PMID 19000821; details: virus expressing S375W Env gp120 incubated with target cells; ref [21]; cited from earlier work
[12] = tested on: laboratory-adapted HIV-1IIIB strain; design: method as in Zhao et al. [18]; details: printed in the HIV-1 YU2 column, but determined in laboratory-adapted HIV-1IIIB strain; ref Zhao et al. [18]; cited from earlier work
[13] = HIV-1YU2, normalized to 2 (NBD-557), ref [24,27]
[14] = HIV-1YU2, normalized to N-(4-Chloro-3-Fluorophenyl)-N'-(1,2,2,6,6-Pentamethylpiperidin-4-yl)ethanediamide, ref [24,27]
[15] = HIV-1YU2, normalized to 1 (NBD-556), ref Madani et al. [21]

SMILES: CC1(C)O[C@@H](CN)[C@H](CNC(=O)C(=O)Nc2ccc(Cl)c(F)c2)O1 (relative stereo) [AS-I-261]
- enhancement of gp120 coremin binding to 17b [1]: equally enhanced
- IC50 ([2]; ref [24,27]): 76.6 µM
- IC50 ([3]; ref [24,27]): 94.4 µM
- Activation of Viral Infectivity [4, 13]: 1.5
- activation of viral infectivity in CD4-negative cells (in words) ([4]; ref [24,27]): activated viral infectivity
- Kd ([5]; ref [24,27]): 2.6 µM

SMILES: O=C(NC[C@@]12CCC[C@@H]1CNC2)C(=O)Nc1ccc(Cl)c(F)c1 (relative stereo) [MAE-II-167]
- enhancement of gp120 coremin binding to 17b [1]: equally enhanced
- IC50 ([2]; ref [24,27]): 68.3 µM
- IC50 ([3]; ref [24,27]): 93.1 µM
- Activation of Viral Infectivity [4, 13]: 0.0
- Kd ([5]; ref [24,27]): 3.1 µM

SMILES: O=C(NCC1NCCc2ccccc21)C(=O)Nc1ccc(Cl)c(F)c1 (centres unmarked) [AS-II-37]
- enhancement of gp120 coremin binding to 17b [1]: somewhat reduced enhancement
- IC50 ([2]; ref [24,27]): 50.4 µM
- IC50 ([3]; ref [24,27]): > 100 µM
- Activation of Viral Infectivity [4, 13]: 0.6
- Kd ([5]; ref [24,27]): 1.2 µM

SMILES: N=C(N)N[C@@H]1Cc2ccccc2[C@H]1NC(=O)C(=O)Nc1ccc(Cl)c(F)c1 [AWS-I-169]
- IC50 ([2]; ref [24,27]): 21.3 µM
- IC50 ([3]; ref [24,27]): > 100 µM
- Activation of Viral Infectivity [4, 14]: 0.0
- Kd ([5]; ref [24,27]): 0.3 µM

SMILES: COc1ccnc2[nH]cc(C(=O)C(=O)N3CCN(C(=O)c4ccccc4)C[C@H]3C)c12 [BMS-806, reference compound]
- enhancement of gp120 coremin binding to 17b [1]: did not enhance

SMILES: N=C(N)N[C@H]1Cc2ccccc2[C@@H]1NC(=O)C(=O)Nc1ccc(Cl)c(F)c1 [DMJ-I-228]
- IC50 ([2]; ref [24,27]): 22.9 µM
- effect on cell growth dynamics (cytotoxicity) [6]: does not alter the cell growth dynamics
- IC50 ([3]; ref [24,27]): > 100 µM
- Activation of Viral Infectivity [4, 14]: 0.0
- activation of viral infectivity in CD4-negative cells (in words) ([4]; ref [24,27]): did not
- Kd ([5]; ref [24,27]): 0.25 µM

SMILES: N=C(N)NC[C@H]1Cc2ccccc2[C@@H]1NC(=O)C(=O)Nc1ccc(Cl)c(F)c1 [DMJ-II-121]
- IC50 ([2]; ref [24,27]): 2.3 µM
- IC50 ([3]; ref [24,27]): > 100 µM
- Activation of Viral Infectivity ([4]; HIV-1YU2, normalized to 1 (NBD-556), ref [24,27]): 0.0
- Kd ([5]; ref [24,27]): 0.11 µM

SMILES: CC1(C)CC(NC(=O)C(=O)Nc2ccc(Cl)c(F)c2)CC(C)(C)N1 [JRC-II-191]
- IC50 ([2]; ref Madani et al. [21]): 54.4 µM
- inhibition of HIV-1YU2 infection of cells expressing CD4 and CCR5 ([2]; compared with NBD-556, ref [21], [27]): more potently than NBD-556
- IC50 ([3]; ref Madani et al. [21]): > 100 µM
- Activation of Viral Infectivity [4, 15]: 1.9 ± 0.2
- enhancement of binding affinity for YU2 gp120 ([5]; para-chloro, meta-fluoro aromatic ring, compared with NBD-556, ref [21], [27]): 5 fold

SMILES: O=C(NCC1CCN(C2CC2)C1)C(=O)Nc1ccc(Cl)c(F)c1 (centres unmarked) [MAE-II-188]
- enhancement of gp120 coremin binding to 17b [1]: equally enhanced
- IC50 ([3]; ref [24,27]): > 100 µM
- Activation of Viral Infectivity [4, 13]: 0.3

SMILES: CC1(C)CC(NC(=O)C(=O)Nc2ccc(Cl)cc2)CC(C)(C)N1 [NBD-556]
- binding to S375W full-length gp120 [7]: inefficiently bind
- binding of gp120 coree to immobilized ligand [8]: does not show detectable binding
- binding of gp120 coree to immobilized ligand [9]: does not bind
- binding of gp120 coree to immobilized ligand [10]: does not bind
- IC50 ([2]; ref Madani et al. [21]): > 100 µM
- IC50 ([3]; ref Madani et al. [21]): > 100 µM
- Activation of Viral Infectivity [4, 15]: 1.0 ± 0.1

SMILES: CC1(C)CC(NC(=O)C(=O)Nc2ccc(Br)cc2)CC(C)(C)N1 [NBD-557, reference compound]
- enhancement of CD4-independent viral entry [11]: does not enhance
- Activation of Viral Infectivity [4, 15]: 0.9 ± 0.4
- Kd ([5]; ref Madani et al. [21]): 2.2 µM
- IC50 [12]: 3.08 µM
